In this test the target is T1, Acyl-CoA: Cholesterol Acyltransferase (ACAT) (Rattus norvegicus, UniProt Q7TQM4).
T1 construct: Microsomes were obtained by differential centrifugation; from tissue; host or cells: liver microsomes of male Sprague Dawley rats
T1 sequence (Q7TQM4 1-524): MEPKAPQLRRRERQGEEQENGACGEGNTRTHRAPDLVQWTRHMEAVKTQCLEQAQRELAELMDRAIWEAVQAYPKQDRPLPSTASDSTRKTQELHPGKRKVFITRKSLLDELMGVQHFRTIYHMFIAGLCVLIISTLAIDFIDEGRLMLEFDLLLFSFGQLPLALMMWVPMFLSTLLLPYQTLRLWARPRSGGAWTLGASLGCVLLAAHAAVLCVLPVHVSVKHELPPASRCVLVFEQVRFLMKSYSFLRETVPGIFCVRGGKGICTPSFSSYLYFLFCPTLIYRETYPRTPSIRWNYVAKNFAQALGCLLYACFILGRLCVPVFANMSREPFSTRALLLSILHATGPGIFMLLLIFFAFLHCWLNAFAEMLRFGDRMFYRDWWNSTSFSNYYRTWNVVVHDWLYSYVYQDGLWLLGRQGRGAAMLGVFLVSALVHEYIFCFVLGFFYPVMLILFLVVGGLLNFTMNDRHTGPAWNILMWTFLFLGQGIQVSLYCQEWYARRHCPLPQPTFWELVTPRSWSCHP
Put plainly: Inhibition of Acyl-CoA: Cholesterol Acyltransferase (ACAT) in Hepatic Microsomes. Format: biochemical, Sprague Dawley rats. Particulars: 14C-oleoyl-CoA, pH 7.4, 37° C., read-out: In Vitro ACAT IC50. As for the experimental part: A. Assay of the Inhibition of Acyl-CoA: Cholesterol Acyltransferase (ACAT) in Hepatic Microsomes
The ability of the compounds to inhibit ACAT, the enzyme responsible for the intracellular synthesis of cholesteryl esters, was tested as follows. Male Sprague Dawley rats weighing 150-300 g, were fed rat chow ad libitum. The animals were fasted for twenty-four hours prior to being sacrificed by decapitation. The livers were perfused in situ with 50 ml of cold 0.25M sucrose, excised, and homogenized in three volumes of 0.1M phosphate buffer, pH 7.4, that contained 0.5 mM EDTA (ethylenediaminetetraacetic acid), 1.0 mM glutathione, 0.25M sucrose and […]. Microsomes were obtained by differential centrifugation; the supernatant from an initial spin at 15,000×g for 15 minutes was centrifuged at 105,000×g for 1 hour to pellet the microsomes. The microsomes were suspended in homogenization buffer, reisolated by centrifugation, and stored at -70° C. Microsomes were used within one month of preparation.
The control assay in a final volume of 200 μl consisted of 200 μg of microsomal protein, 75 μM ^14 C-oleoyl-CoA (10,000 dpm/nmol) in 0.1M phosphate, pH 7.4, that contained 1 mM glutathione. Compounds were added in 5 μl of DMSO (dimethyl sulfoxide) and additional controls were run with DMSO only. All components, except the oleoyl-CoA, were preincubated for 15 min. at 37° C. prior to the initiation of the reaction by the addition of oleoyl-CoA. The assay was terminated after 10 min by the addition of 4 ml of chloroform:methanol (2:1, v/v). 20,000 dpm of 3H-cholesteryl oleate and 10 μg of unlabeled cholesteryl oleate and oleic acid were added as an internal standard and carriers, respectively. After allowing 10 min. for lipid extraction, the samples were centrifuged at 1,000×g for 10 min. to separate the solvent layers. The chloroform layer containing the neutral lipids was spotted onto a Baker SI250-Pa silica gel TLC plate and the plate developed using a hexane: diethyl ether: acetic acid (170:30:1 v/v/v) mobile phase. The lipids were visualized by their interaction with iodine vapor and the cholesteryl ester spot was scraped into a scintillation vial and counted.

Molecules are shown by their SMILES.

As for `CCCCCCCN(CCCCCCCCSc1nc(-c2ccccc2)c(-c2ccccc2)[nH]1)C(=O)Nc1ccc(F)cc1F` [Example 3, N'-(2,4-difluorophenyl)-N-[8-(4,5-diphenyl-1H-imidazol-2-ylthio)octyl]-N-heptylurea], the IC50 was 8 nM. Then `CCCCCCCN(CCCCCSc1nc(-c2ccccc2)c(-c2ccccc2)n1C)C(=O)Nc1ccc(F)cc1F` [Example 6, N'-(2,4-difluorophenyl)-N-heptyl-N-[5-(1-methyl-4,5-diphenyl-1H-imidazol-2-ylthio]pentyl]urea], with 3600 nM. Then `CCCCCCCN(CCCCCSc1nc(-c2ccccc2)c(-c2ccccc2)[nH]1)C(=O)NCCC` [Example 8, N-[5-(4,5-diphenyl-1H-imidazol-2-ylthio)pentyl]-N-heptyl-N'-propylurea], with 10 nM; and `CCCCCCCN(CCCCCSc1nc(-c2ccccc2)c(-c2ccccc2)[nH]1)C(=O)NC1CCCCC1` [Example 94, N'-cyclohexyl-N-[5-(4,5-diphenyl-1H-imidazol-2-ylthio)pentyl]-N-heptylurea], with 10 nM. Then `CCCCCCCN(CCCCCSc1nc(-c2ccccc2)c(-c2ccccc2)[nH]1)C(=O)NC(C)C` [Example 105, N-[5-(4,5-diphenyl-1H-imidazol-2-ylthio)pentyl]-N-heptyl-N'-(1-methylethyl)urea], with 20 nM; and `CCCCCCCN(CCSc1nc(-c2ccccc2)c(-c2ccccc2)[nH]1)C(=O)Nc1ccc(F)cc1F` [Example 189, N'-(2,4-difluorophenyl)-N-[2-(4,5-diphenyl-1H-imidazol-2-ylthio)ethyl]-N-heptylurea], with 70 nM. In the case of `CCCN(CCCCCSc1nc(-c2ccccc2)c(-c2ccccc2)[nH]1)C(=O)Nc1ccc(F)cc1F` [Example 190], the concentration for half-maximal inhibition (IC50) amounted to 30 nM. Turning to `CCCCCCCN(CCCCCSc1nc(-c2ccccc2)c(-c2ccccc2)[nH]1)C(=O)Nc1ccc(-c2ccccc2)cc1` [Example 192, N'-[(1,1'-biphenyl)-4-yl]-N-[5-(4,5-diphenyl-b 1H-imidazol-2-ylthio)pentyl]-N-heptylurea], the concentration for half-maximal inhibition (IC50) was 70 nM. Then `CCCCCCCCNC(=O)N(CCCCCSc1nc(-c2ccccc2)c(-c2ccccc2)[nH]1)c1ccc(F)cc1F` [Example 206, N-(2,4-difluorophenyl)-N-[5-(4,5-diphenyl-1H-imidazol-2-ylthio)pentyl]-N'-octylurea], with 40 nM; and `CCCCCCCCNC(=O)N(CCCCCSc1nc(-c2ccccc2)c(-c2ccccc2)[nH]1)c1c(F)cc(F)cc1F` [Example 208], with 20 nM. Then `CC(C)NC(=O)N(CCCCCSc1nc(-c2ccccc2)c(-c2ccccc2)[nH]1)c1ccccc1` [Example 261], with 80 nM. `CC(C)NC(=O)N(CCCCCSc1nc(-c2ccccc2)c(-c2ccccc2)[nH]1)c1ccc(F)cc1F` [Example 263]: the IC50 is 40 nM. The value for `CCCCCCCN(CCCCCSc1nc(-c2ccccc2)c(-c2ccccc2)[nH]1)C(=O)Nc1c(C(C)C)cccc1C(C)C` [Example 266] was 230 nM. Then `CCCCCCCN(CCCCCSc1nc(-c2ccccc2)c(-c2ccccc2)[nH]1)C(=S)Nc1ccc(F)cc1F` [Example 276, N'-(2,4-difluorophenyl]-N-[5-(4,5-diphenyl-1H-imidazol-2-ylthio)pentyl]-N-heptylthiourea], with 58 nM; and `CCCCCCCN(CCCCC[S+]([O-])c1nc(-c2ccccc2)c(-c2ccccc2)[nH]1)C(=O)Nc1ccc(F)cc1F` (stereo not drawn) [Example 278, N'-(2,4-difluorophenyl)-N-[5-(4,5-diphenyl-1H-imidazol-2-ylsulfinyl)pentyl]-N-heptylurea], with 8 nM; and `CCCCCCCN(CCCCCS(=O)(=O)c1nc(-c2ccccc2)c(-c2ccccc2)[nH]1)C(=O)Nc1ccc(F)cc1F` [Example 281, N'-(2,4-difluorophenyl)-N-[5-[(4,5-diphenyl-1H-imidazol-2-yl)sulfonyl]pentyl]-N-heptylurea], with 16 nM. The value for `CCCCCCCN(CCCCCSc1nc(-c2ccccc2)c(-c2ccccc2)[nH]1)C(=S)Nc1c(F)cc(F)cc1F` [Example 298, N-[5-(4,5-diphenyl-1H-imidazol-2-ylthio)pentyl]N-heptyl-N'-(2,4,6-trifluorophenyl)thiourea] was 30 nM. As to `CCCCCCCN(CCCCCNc1nc(-c2ccccc2)c(-c2ccccc2)[nH]1)C(=O)Nc1ccc(F)cc1F` [Example 338, N' -(2,4-difluorophenyl)-N-[5-(4,5-diphenyl-1H-imidazol-2-ylamino)pentyl]-N-heptylurea], the IC50 is 3500 nM. The value for `CCCCCCCN(CCCCCCc1nc(-c2ccccc2)c(-c2ccccc2)[nH]1)C(=O)Nc1ccc(F)cc1F` [Example 339, N'-(2,4-difluorophenyl)-N-[6-(4,5-diphenyl-1H-imidazol-2-yl)hexyl]-N-heptylurea] was 280 nM; that for `CCCCCCCN(CCCCCSc1nc(-c2ccccc2)c(-c2ccccc2)[nH]1)C(=O)Cc1ccc(F)cc1F` [Example 340, 2,4-difluoro-N-[(5-(4,5-diphenyl-1H-imidazol-2-ylthio)pentyl)]-N-heptylbenzeneacetamide] was 25 nM; that for `CCCCCCCN(CCCCCSc1nc(-c2ccccc2)c(-c2ccccc2)[nH]1)C(=O)Cc1ccc(-c2ccccc2)cc1` [Example 343, N-[5-(4,5-diphenyl-1H-imidazol-2-ylthio)pentyl]-N-heptyl[1,1'-biphenyl]-4-acetamide] was 160 nM. The value for `CCCCCCCN(CCCCCSc1nc(-c2ccccc2)c(-c2ccccc2)[nH]1)C(=O)CC1CCCCC1` [Example 344] was 30 nM. Then `CCCCCCCN(CCCCCSc1nc(-c2ccccc2)c(-c2ccccc2)[nH]1)C(=O)c1ccc(F)cc1F` [Example 345], with 60 nM. `CCCCCCCN(CCCCCSc1nc(-c2ccccc2)c(-c2ccccc2)[nH]1)C(=O)c1ccccc1` [Example 346]: the half-maximal inhibitory concentration (IC50) came to 50 nM. Take `CCCCCCCN(CCCCCSc1nc(-c2ccccc2)c(-c2ccccc2)[nH]1)C(=O)OC1CCCCC1` [Example 401, cyclohexyl [5-(4,5-diphenyl-1H-imidazol-2-ylthio)pentyl]heptylcarbamate]: the IC50 was 50 nM. Take `CCCCCCCN(CCCCCSc1nc(-c2ccccc2)c(-c2ccccc2)[nH]1)C(=O)Oc1ccccc1` [Example 402, Phenyl [5-(4,5-diphenyl-1H-imidazol-2-ylthio)pentyl]heptylcarbamate]: the IC50 is 20 nM.

Regarding `CCCCCCCN(CCCCCSc1nc(-c2ccccc2)c(-c2ccccc2)[nH]1)C(=N)Nc1ccccc1` [Example 499, N-[5-(4,5-diphenyl-1H-imidazol-2-ylthio)pentyl]-N-heptyl-N'-phenylguanidin], the half-inhibitory concentration (IC50) turned out to be 3160 nM.

The values above are taken from patent US5318984A, “Imidazoles for the treatment of atherosclerosis” (priority 1992, dated 1994).
